Measurements reported in PubChem BioAssay AID2060606 (Molecular Pharmacology Branch, DTP, NCI, 2025).
Where “and” joins values, the source holds several entries; their conditions need not be identical. Equal entries are not always repeated.

System: 922993-354-T-J3-PDC complex spheroids, viability, % test/control
Experiment: Anticancer human tumor 922993-354-T-J3-PDC patient-derived endometrial carcinoma cell line growth inhibition [CLK]
Conditions: for viability, T/C: stronger effect = lower value
Procedure, shortened: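 Patient-derived tumor cells grown as complex spheroids with HUVEC endothelial cells and mesenchymal stem cells, treated with drug combinations. Concentrations descend in half-log steps from near clinical Cmax, or from 10 microM if Cmax unknown.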

[1] = curve of first compound, second compound 0.0316 µM
[2] = curve of first compound, second compound 0.1 µM
[3] = curve of first compound, second compound 0.316 µM
[4] = curve of first compound, second compound 1 µM
[5] = curve of first compound, second compound 3.16 µM
[6] = curve of first compound, second compound 10 µM
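Note: spheroids exposed to the agents for 7 days before readout.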

Q: Which results are given for `CC(C)CC(NC(=O)C(Cc1ccccc1)NC(=O)c1cnccn1)B(O)O` (stereo unspecified) + CN1CCN(c2cc(C(=O)Nc3cc4cc(-c5cnn(C)c5)ccc4cn3)ccn2)CC1?
A: IC50 [1]: 6.51 nM; IC50 [2]: 6.63 nM; IC50 [3]: < 0.949 nM; IC50 [4]: < 0.949 nM; IC50 [5]: < 0.949 nM; IC50 [6]: < 0.949 nM; viability, T/C (second compound 0.0316 µM, first compound 0.000949 µM): 103%; viability, T/C (second compound 0.0316 µM, first compound 0.003 µM): 85.5%; viability, T/C (second compound 0.0316 µM, first compound 0.00949 µM): 32.6%; viability, T/C (second compound 0.0316 µM, first compound 0.03 µM): 6.15%; viability, T/C (second compound 0.0316 µM, first compound 0.0949 µM): 1.44%; viability, T/C (second compound 0.0316 µM, first compound 0.3 µM): 1.26%; viability, T/C (second compound 0.1 µM, first compound 0.000949 µM): 94.7%; viability, T/C (second compound 0.1 µM, first compound 0.003 µM): 74.5%; viability, T/C (second compound 0.1 µM, first compound 0.00949 µM): 40.2%; viability, T/C (second compound 0.1 µM, first compound 0.03 µM): 8.34%; viability, T/C (second compound 0.1 µM, first compound 0.0949 µM): 1.08%; viability, T/C (second compound 0.1 µM, first compound 0.3 µM): 1.56%; viability, T/C (second compound 0.316 µM, first compound 0.000949 µM): 50.3%; viability, T/C (second compound 0.316 µM, first compound 0.003 µM): 28.6%; viability, T/C (second compound 0.316 µM, first compound 0.00949 µM): 20.6%; viability, T/C (second compound 0.316 µM, first compound 0.03 µM): 6.46%; viability, T/C (second compound 0.316 µM, first compound 0.0949 µM): 1.39%; viability, T/C (second compound 0.316 µM, first compound 0.3 µM): 0.48%; viability, T/C (second compound 1 µM, first compound 0.000949 µM): 0.16%; viability, T/C (second compound 1 µM, first compound 0.003 µM): 1.6%; viability, T/C (second compound 1 µM, first compound 0.00949 µM): 0.98%; viability, T/C (second compound 1 µM, first compound 0.03 µM): 0.44%; viability, T/C (second compound 1 µM, first compound 0.0949 µM): 0.08%; viability, T/C (second compound 1 µM, first compound 0.3 µM): 0.48%; viability, T/C (second compound 3.16 µM, first compound 0.000949 µM): 0.1%; viability, T/C (second compound 3.16 µM, first compound 0.003 µM): 0.68%; viability, T/C (second compound 3.16 µM, first compound 0.00949 µM): 1%; viability, T/C (second compound 3.16 µM, first compound 0.03 µM): 0.07%; viability, T/C (second compound 3.16 µM, first compound 0.0949 µM): 0.83%; viability, T/C (second compound 3.16 µM, first compound 0.3 µM): 0.79%; viability, T/C (second compound 10 µM, first compound 0.000949 µM): 0.08%; viability, T/C (second compound 10 µM, first compound 0.003 µM): 1.39%; viability, T/C (second compound 10 µM, first compound 0.00949 µM): 0.12%; viability, T/C (second compound 10 µM, first compound 0.03 µM): 0.16%; viability, T/C (second compound 10 µM, first compound 0.0949 µM): 2.52%; viability, T/C (second compound 10 µM, first compound 0.3 µM): 2.16%

Q: Which results are given for `CC1(C)CCC(CN2CCN(c3ccc(C(=O)NS(=O)(=O)c4ccc(NCC5CCOCC5)c([N+](=O)[O-])c4)c(Oc4cnc5[nH]ccc5c4)c3)CC2)=C(c2ccc(Cl)cc2)C1` + CNC(=O)c1ccc(Nc2nc(OC3CCCC3)c3c(-c4ccc5nc(C)oc5c4)c[nH]c3n2)c(OC)c1?
A: IC50 [1]: > 10000 nM; IC50 [2]: > 10000 nM; IC50 [3]: 4840 nM; IC50 [4]: < 31.6 nM; IC50 [5]: < 31.6 nM; IC50 [6]: < 31.6 nM; viability, T/C (second compound 0.0316 µM, first compound 0.0316 µM): 108%; viability, T/C (second compound 0.0316 µM, first compound 0.1 µM): 96%; viability, T/C (second compound 0.0316 µM, first compound 0.316 µM): 102%; viability, T/C (second compound 0.0316 µM, first compound 1 µM): 88%; viability, T/C (second compound 0.0316 µM, first compound 3.16 µM): 108%; viability, T/C (second compound 0.0316 µM, first compound 10 µM): 66.1%; viability, T/C (second compound 0.1 µM, first compound 0.0316 µM): 108%; viability, T/C (second compound 0.1 µM, first compound 0.1 µM): 105%; viability, T/C (second compound 0.1 µM, first compound 0.316 µM): 110%; viability, T/C (second compound 0.1 µM, first compound 1 µM): 104%; viability, T/C (second compound 0.1 µM, first compound 3.16 µM): 113%; viability, T/C (second compound 0.1 µM, first compound 10 µM): 61.5%; viability, T/C (second compound 0.316 µM, first compound 0.0316 µM): 69.8%; viability, T/C (second compound 0.316 µM, first compound 0.1 µM): 62.8%; viability, T/C (second compound 0.316 µM, first compound 0.316 µM): 61.3%; viability, T/C (second compound 0.316 µM, first compound 1 µM): 58.7%; viability, T/C (second compound 0.316 µM, first compound 3.16 µM): 64.4%; viability, T/C (second compound 0.316 µM, first compound 10 µM): 27.1%; viability, T/C (second compound 1 µM, first compound 0.0316 µM): 36.3%; viability, T/C (second compound 1 µM, first compound 0.1 µM): 37.7%; viability, T/C (second compound 1 µM, first compound 0.316 µM): 27.1%; viability, T/C (second compound 1 µM, first compound 1 µM): 38.2%; viability, T/C (second compound 1 µM, first compound 3.16 µM): 31.8%; viability, T/C (second compound 1 µM, first compound 10 µM): 17.9%; viability, T/C (second compound 3.16 µM, first compound 0.0316 µM): 29.6%; viability, T/C (second compound 3.16 µM, first compound 0.1 µM): 33.6%; viability, T/C (second compound 3.16 µM, first compound 0.316 µM): 28.6%; viability, T/C (second compound 3.16 µM, first compound 1 µM): 31.3%; viability, T/C (second compound 3.16 µM, first compound 3.16 µM): 29%; viability, T/C (second compound 3.16 µM, first compound 10 µM): 15.4%; viability, T/C (second compound 10 µM, first compound 0.0316 µM): 31.4%; viability, T/C (second compound 10 µM, first compound 0.1 µM): 25.7%; viability, T/C (second compound 10 µM, first compound 0.316 µM): 26%; viability, T/C (second compound 10 µM, first compound 1 µM): 25%; viability, T/C (second compound 10 µM, first compound 3.16 µM): 29.4%; viability, T/C (second compound 10 µM, first compound 10 µM): 13.6%

Q: `C=CC(=O)N1CCN(c2nc(=O)n(-c3c(C)ccnc3C(C)C)c3nc(-c4c(O)cccc4F)c(F)cc23)C(C)C1` (stereo unspecified) was tested. Which viability, T/C (compound 0.0316 µM) did it give?
A: 101% and 104%

Q: What about the viability, T/C (compound 0.1 µM) of the same compound?
A: 94.5% and 105%

Q: What about the viability, T/C (compound 0.316 µM) of the same compound?
A: 104% and 92%

Q: What about the viability, T/C (compound 1 µM) of the same compound?
A: 105% and 99.2%

Q: And the viability, T/C (compound 3.16 µM)?
A: 92.5% and 111%

Q: And the viability, T/C (compound 10 µM)?
A: 93% and 93.6%

Q: And the IC50 (curve of compound)?
A: > 10000 nM
